Laboratory results as given in patent US4788188A, “Quinolylglycinamide derivatives, the process for preparation thereof and their therapeutic application as psychotropic drugs” (Sanofi (S.A.), priority 1985, dated 1988).
Like-named read-outs stand apart in the source and are kept apart here.

Legend:
benzodiazepine receptors = experiment: Affinity for benzodiazepine receptors: inhibition of specific binding of [3H]flunitrazepam (WASTEK et al., modified); set-up: species or system rats; settings: 50% inhibition of specific binding of [3H]flunitrazepam, rat brain membranes
Method: This study was performed according to the technique of WASTEK et al., (Europ. J. Pharmacol., 1978, 50, 445-447) slightly modified.
Rats are sacrificed by decapitation, and the brain is removed, ground, suspended, centrifuged and resuspended.
Samples of this suspension are incubated in the presence of [^3 H]flunitrazepam, alone or in the presence of increasing concentrations of the test compound.
The radioactivity bound on the membranes is then determined by liquid scintillation.
The concentration of product which 50% inhibits the specific binding of [^3 H]flunitrazepam (IC50) is thereby determined.

pentetrazole seizures = experiment: Anticonvulsant activity: protection against pentetrazole seizures (EVERETT and RICHARDS); type: in vivo, mice; settings: Mus musculus, po, 0.5 h, pentetrazole 125 mg/kg subcutaneously, no tonic seizures during 30 minutes, 95% confidence limits (FINNEY), read-out: ED50 (Confidence interval)
Method: The protective effect produced by the compound of the inventon against pentetrazole seizures was studied.
This test was carried out according to the method of EVERETT and RICHARDS (J. Pharm. Exp. Ther., 1944, 81, 402-407). The test products and reference products were administered orally (suspended in gum arabic) to batches of 10 mice, 30 minutes […] pentetrazole (125 mg/kg subcutaneously).

food neophobia = experiment: Anxiolytic activity: food neophobia test; type: in vivo, mice; settings: 30 minutes after treatment
Method: This activity was studied by the food neophobia test. In effect, a pronounced inhibition of the feed intake can be obtained in mice when both the food and the enclosure are unfamiliar to the aninal (R. J. STEPHENS, Brit. J. Pharmacol., 1973, 47, 145 P). All anxiolytics specifically counteract neophobia phenomena.
30 minutes after oral or subcutaneous treatment with the test derivatives and the reference products, the mice, fasted for 16 to 20 hours, are isolated in a translucent enclosure and placed in the presence of an unfamiliar food for 5 minutes.
The amounts consumed are evaluated in proportion to the weight of the animal.
In each batch, the mean consumption and also the percentage variation relative to the control batch are calculated in this manner.

[1] = comparison, L. PIERI et al., Arzneim. Forsch., 1981; route not given; cited from earlier work
[2] = Hypnotic activity (method of JANSEN); type: in vivo, mice; settings: 95% confidence interval (FINNEY); for ED50: Mus musculus, iv, read-out: 50% hypnotic dose (confidence interval); for 50% hypnotic dose (confidence interval): i.v.
[3] = Hypnotic activity (method of JANSEN); type: in vivo, mice; settings: 95% confidence interval (FINNEY); for ED50: Mus musculus, ip, read-out: 50% hypnotic dose (confidence interval)
Method: The hypnotic activity of the compounds of the present invention was assessed by the method of JANSEN (J. Med. Pharm. Chem., 1959, 1, 281).
After treatment i.p., each mouse is carefully placed on its back. […] In each batch (10 mice per dose), the percentage of sleeping animals is noted. The 50% hypnotic dose and its 95% confidence interval were calculated according to FINNEY's (1971) method.

[4] = Acute toxicity in mice (oral); settings: mouse, in vivo, oral administration
Excerpt: The acute, chronic, sub-chronic and delayed toxicities were dealt with in this study. Performed on various animal species, the trials brought out the low toxicity and good tolerability of the derivatives of the invention.

Compound	IC50 (benzodiazepine receptors)	ED50 (pentetrazole seizures)	ED50 [2]	ED50 [3]	further results
CCCN(CCC)C(=O)CNc1c(C(=O)OCC)cnc2ccc(C)cc12.Cl [Derivative 13, 2-(3-Ethoxycarbonyl-6-methyl-4-quinolyl)amino-N,N-dipropylacetamide hydrochloride]	25 nM	25 mg/kg	–	–	Percentage increase (food consumption relative to control batch) (food neophobia; dose 16 mg/kg, PO): 75%
Cc1ncc2n1-c1ccc(Cl)cc1C(c1ccccc1F)=NC2 [midazolam]	–	–	–	–	50% hypnotic dose [1]: 23 mg/kg
CCCN(CCC)C(=O)CNc1c(C(=O)OCC)cnc2ccc(Br)cc12 [Derivative 17, 2-(3-Ethoxycarbonyl-6-bromo-4-quinolyl)amino-N,N-dipropylacetamide]	8 nM	18 mg/kg	–	–	Percentage increase (food consumption relative to control batch) (food neophobia; dose 32 mg/kg, SC): 75%
CCCN(CCC)C(=O)CNc1c(C(=O)O)cnc2ccc(Cl)cc12 [Derivative 46, 2-(3-Carboxy-6-chloro-4-quinolyl)amino-N,N-dipropylacetamide]	1 nM	–	–	–	Percentage increase (food consumption relative to control batch) (food neophobia; dose 16 mg/kg, SC): 75%
CCCC(C)C1(CC)C(=O)NC(=S)NC1=O (centres unmarked) [thiopental sodium]	–	–	–	–	50% hypnotic dose [1]: 17 mg/kg
CCOC(=O)c1cnc2ccc(OCC)cc2c1NCC(=O)N1CCCCC1 [Derivative 33, 1-{2-[(3-Ethoxycarbonyl-6-ethoxy-4-quinolyl)amino]acetyl}piperidine]	54 nM	–	5 mg/kg	15 mg/kg	–
CCOC(=O)c1cnc2ccc(OCC)cc2c1NCC(=O)N(CC)CC [Derivative 8]	133 nM	–	5 mg/kg	18 mg/kg	–
CCOC(=O)c1cnc2ccc(OC)cc2c1NCC(=O)N(CC)CC [Derivative 3, 2-(3-Ethoxycarbonyl-6-methoxy-4-quinolyl)amino-N,N-diethylacetamide]	55 nM	–	7 mg/kg	27 mg/kg	LD50 [4]: 1650 mg/kg
CCCN(CCC)C(=O)CNc1c(C(=O)OCC)cnc2ccc(Cl)cc12 [12 (Sulphate)]	–	–	–	–	50% hypnotic dose (confidence interval) [2]: 6 (4-15) mg/kg; 50% hypnotic dose (confidence interval) ([3]; i.p.): 30 (14-39) mg/kg
CCCN(CCC)C(=O)CNc1c(C(=O)OCC)cnc2ccc(Cl)cc12 [12 (Phosphate)]	–	–	–	38 mg/kg	50% hypnotic dose (confidence interval) [2]: 2 (1-4) mg/kg
CCOC(=O)c1cnc2ccc([N+](=O)[O-])cc2c1NCC(=O)N(CC)CC [Derivative 5, 2-(3-Ethoxycarbonyl-6-nitro-4-quinolyl)amino-N,N-diethylacetamide]	97 nM	50 mg/kg	9 mg/kg	25 mg/kg	–
CCCN(CCC)C(=O)CNc1c(C(=O)OCC)cnc2ccc(OC)cc12 [Derivative 14, 2-(3-Ethoxycarbonyl-6-methoxy-4-quinolyl)amino-N,N-dipropylacetamide]	17 nM	40 mg/kg	5 mg/kg	25 mg/kg	–
CCOC(=O)c1cnc2ccc(C(F)(F)F)cc2c1NCC(=O)N(CC)CC [Derivative 4, 2-(3-Ethoxycarbonyl-6-trifluoromethyl-4-quinolyl)amino-N,N-diethylacetamide]	97 nM	–	5 mg/kg	27 mg/kg	–
CCCN(CCC)C(=O)CN(C)c1c(C(=O)OCC)cnc2ccc(Cl)cc12 [Derivative 59, [N'-(3-Ethoxycarbonyl-6-chloro-4-quinolyl)-N'-methylamino]-N,N-dipropylacetamide]	–	16 mg/kg	–	–	Percentage increase (food consumption relative to control batch) (food neophobia; dose 32 mg/kg, PO): 146%
CCN(CC)C(=O)CNc1c(C(=O)O)cnc2ccc(Cl)cc12 [Derivative 43, 2-(3-Carboxy-6-chloro-4-quinolyl)amino-N,N-diethylacetamide]	7 nM	–	–	–	LD50 [4]: 2200 mg/kg; Percentage increase (food consumption relative to control batch) (food neophobia; dose 64 mg/kg, SC): 75%
CCOC(=O)c1cnc2ccc(Cl)cc2c1N(C)CC(=O)N(CC)CC [Derivative 58, [N'-(3-Ethoxycarbonyl-6-chloro-4-quinolyl)-N'-methylamino]-N,N-diethylacetamide]	–	44 mg/kg	–	–	Percentage increase (food consumption relative to control batch) (food neophobia; dose 64 mg/kg, SC): 80%
CCCN(CCC)C(=O)CNc1c(C(=O)OCC)cnc2ccc(Cl)cc12 [Derivative 12, 2-(3-Ethoxycarbonyl-6-chloro-4-quinolyl)amino-N,N-dipropylacetamide]	16 nM	10 mg/kg	–	–	Percentage increase (food consumption relative to control batch) (food neophobia; dose 32 mg/kg, PO): 75%
CNC1=Nc2ccc(Cl)cc2C(c2ccccc2)=[N+]([O-])C1 [Chlordiazepoxide, chlordiazepoxide, reference compound]	950 nM	7 mg/kg	–	–	Percentage increase (food consumption relative to control batch) (food neophobia; dose 16 mg/kg, PO): 73%
CCOC(=O)c1cnc2ccc(Cl)cc2c1NCC(=O)N(CC)CC [Derivative 1, 2-(3-Ethoxycarbonyl-6-chloro-4-quinolyl)amino-N,N-diethylacetamide]	85 nM	49 mg/kg	–	–	LD50 [4]: 1800 mg/kg
CCOC(=O)c1cnc2ccc(Cl)cc2c1NCC(=O)N1CCCC(C)C1 (centres unmarked) [Derivative 38, 1-{2-[(3-Ethoxycarbonyl-6-chloro-4-quinolyl)amino]acetyl}-3-methylpiperidine]	65 nM	46 mg/kg	9 mg/kg	28 mg/kg	–
CCCC(C)(COC(N)=O)COC(N)=O [Meprobamate, reference compound]	–	36 mg/kg	–	–	Percentage increase (food consumption relative to control batch) (food neophobia; dose 60 mg/kg, PO): 95%
CN1C(=O)CN=C(c2ccccc2)c2cc(Cl)ccc21 [Diazepam, diazepam, reference compound]	10 nM	–	–	–	Percentage increase (food consumption relative to control batch) (food neophobia; dose 4 mg/kg, PO): 80%
